This note sets out measurements from patent US20250346642A1, “NEW SPLICE VARIANT ISOFORM OF VEGF” (CENTRE NATIONAL DE LA RECHERCHE SCIENTIFIQUE (CNRS), priority 2020, published 2025).

For one data set, the system named is 786-O cells. Description: RT-qPCR of VEGF and VEGF222/NF in 786-O cells transduced with shRNA. The class given is cell-based. The source says:
(§1) For these constructs, the C-terminal V5-tag was not in frame. To generate lentiviral shRNA plasmids, pLKO.1-TRC cloning vector, a kind gift from David Roots, has been used. pLKO.1-TRC contains a 1.9 kb stuffer released by Agel and EcoRI digestion. shRNA oligos were annealed and ligated into the Agel and EcoRI sites in place of the stuffer. The following shRNA sequences were used: shScramble: 5′-[…]-3′ (SEQ ID NO: 26); shVEGF #1: 5′-[…]-3′ (SEQ ID NO: 27) shVEGF #2: 5′-[…]-3′ (SEQ ID NO: 28); shVEGFNF #1: 5′-[…]-3′ (SEQ ID NO: 29); shVEGFNF #2: 5′-[…]-3′(SEQ ID NO: 30); shNRP1: 5′-[…]-3′(SE ID NO: 31); shNRP2: 5′-[…]-3 (SEQ ID NO: 32)′. All plasmids were verified by Sanger sequencing (Eurofins Genomics).
(§2) Lentivirus were produced by triple transfection of HEK-293T cells with a lentiviral transfer vector (pLenti6.3 for overexpression experiments and pLKO.1 for shRNA experiments), and the packaging plasmids psPAX2 and pMD2.G at a 0.3:0.3:0.1 ratio. Transfection was performed using JetPEI® reagent as recommended by the manufacturer Polyplus transfection. The viral supernatant was collected 48 hours following transfection, filtered through a 0.22 μm filter, and added to target cells.
(§3) RT-PCR and RT-qPCR analyses were carried out on human tissue mRNA (BIOCHAIN®) and on cancer cell lines. mRNAs were prepared with a Nucleospin RNA kit (Macherey-Nagel), and cDNA synthesis was performed with a Maxima First Strand CDNA Synthesis Kit for RT-qPCR, with dsDNase (Fischer scientific), according to the manufacturers' instructions.
(§4) PCR analysis was performed on Biometra thermal cycler with PrimeSTAR GXL DNA polymerase (Takara Bio). Quantitative PCR analysis was performed on Applied Biosystems StepOnePlus™ System with TB Green® premix Ex Taq™ (Tli RNase H Plus) (Takara Bio) reagents. All samples were assayed in triplicate. Relative expression levels were determined with the dCt method and normalized to the 36B4 reference gene.
For orientation: Real-time PCR tracks product formation cycle by cycle.

Data set [1] has as its system ACHN cells. Description: RT-qPCR of VEGF and VEGF222/NF in ACHN cells transduced with shRNA. The class given is cell-based.
Excerpt: as §1, §2, §3, §4

For the next data set, the system named is metastatic ccRCC. Description: PFS and OS of metastatic (M1) ccRCC patients treated by sunitinib, grouped by plasma VEGF222/NF. The class given is in vivo, human. Here is the method: Informed consent was obtained from all individual participants included in the study. All patients gave written consent for the use of tumor and blood samples for research. This study was conducted in accordance with the Declaration of Helsinki. Primary tumor samples of 93 non-metastatic (M0) ccRCC patients were obtained from the Rennes and Bordeaux University Hospitals (UroCCR group, NCT03293563). For metastatic patients, the population of the study included 47 ccRCC patients from the prospective SUVEGIL (NCT00943839) and TORAVA (NCT00619268) trials and from a retrospective cohort from Pavia (Italy).
Informed consent was obtained from all individual participants included in the study. All patients gave written consent for the use of tumor and blood samples for research. This study was conducted in accordance with the Declaration of Helsinki. Primary tumor samples of 93 non-metastatic (M0) ccRCC patients were obtained from the Rennes and Bordeaux University Hospitals (UroCCR group, NCT03293563). For metastatic patients, the population of the study included 47 ccRCC patients from the prospective SUVEGIL (NCT00943839) and TORAVA (NCT00619268) trials and from a retrospective cohort from Pavia (Italy). Metastatic patients received oral sunitinib (50 mg per day) once a day for 4 weeks (on days 1 to 28), followed by 2 weeks of treatment interruption. Sunitinib was continued in the absence of disease progression or unacceptable toxicity. Blood samples were collected before the beginning of the treatment (TO). Blood samples were centrifuged (10 000 g for 10 min) and the plasmas were collected and conserved at −80° C. Plasmatic levels of VEGF and VEGF222/NF were determined by ELISA as described in the ELISA method details section. PFS and OS were calculated from patient subgroups with VEGFA or VEGF222/NF plasmatic levels that were less or greater than the third quartile value.
Statistical analysis was carried out using GraphPad Prism 8. Data were expressed as mean±SEM and were compared using an unpaired Mann-Whitney test for intergroup analysis. For patients: The Student's t-test was used to compare continuous variables and chi-square test, or Fisher's exact test (when the conditions for use of the χ2-test were not fulfilled), were used for categorical variables. DFS was defined as the time from surgery to the appearance of metastasis. PFS was defined as the time between surgery and progression, or death from any cause, censoring live patients and progression free at the last follow-up. OS was defined as the time between surgery and the date of death from any cause, censoring those alive at the last follow-up. The Kaplan-Meier method was used to produce survival curves and analyses of censored data were performed using Cox models. Significance was defined as P<0.05.
The detrimental effects of VEGF222/NF in immunodeficient mice and zebrafish models prompted us to analyze the prognostic impact of its plasmatic levels in comparison to plasmatic VEGF level on a cohort of 47 metastatic (M1) ccRCC patients treated by sunitinib. The third quartile was used as the cut-off to determine patients' groups, respectively 4500 […] for VEGF and VEGF222/NF. […] However, patients with high plasmatic levels of both VEGF222/NF and VEGF had the shortest PFS (FIG. 14). […] Whereas VEGF was not associated with a significant effect on OS, high expression of VEGF222/NF WAS synonymous of a shorter overall survival (OS) in M1 patients (FIGS. 13C,D).

In data set [2] the test system is ACHN cells. The data set is described as follows: Proliferation of ACHN cells overexpressing VEGF165 or VEGF222/NF. The class given is cell-based. Conditions: overexpression in ACHN cells, versus LacZ. The procedure:
FIG. 6. VEGF222/NF promotes the proliferation and the survival of RCC cells. […] Cells were counted for 7 days. ***P<0.001 vs LacZ. D-E) RT-qPCR analysis of the expression of VEGF222/NF and VEGF in ACHN (D) and in 786-O (E) cells transduced with pLKO.1 expressing shVEGF165 or shVEGF222/NF. *P<0.05. **P<0.01, ***P<0.001 vs Scramble.
For endothelial cell proliferation assays, TIME or HDLECs cells (50.000 and 25.000, respectively) were seeded in 6-well plates in Endothelial Cell Growth Medium (Promocell) containing 0.5% FBS. […] Results were expressed as fold increase considering day 0 as the reference. For ACHN proliferation, ACHN-LacZ, ACHN-VEGF165, ACHN-VEGF222/NF cells were seeded (20.000) in 6-well plates in DMEM medium containing 0.5% FBS. Cells were counted at day 0, 1, 3, 5 and 7. Results are expressed as fold increase considering day 0 as the reference.

Data set [3] can be described thus: In vivo […] plug assay (hemoglobin content). On the set-up: species or system mice. Conditions: 200 ng in 200 μL MATRIGEL, two weeks. Here is the method:
A″) VEGF222/NF induces phosphorylation of VEGFR2 and activation of the downstream signaling pathways AKT and ERK. […] Cells were washed with PBS and lyzed with Laemmli buffer. Immuno blots were performed with the indicated antibodies. […] Cells were counted for 7 days. […] D) Wound closure was determined at 3 h, 6 h, 9 h and 12 h following treatment. E) In vitro permeability assay. […] Streptavidin-HRP was then added to the transwell for 10 minutes and TMB substrate was added in the lower compartment to assess permeability. F) In vivo permeability assay. […] After 20 minutes, ears were recovered, and the amount of Evans blue was determined by colorimetry (top panel). […] G) In vivo plug assay. […] Representative photographs of the […]® plug 15 days after implantation (bottom panel).
6-weeks old female NMRI mice (n=15) were used for this experiment. […] […]® plugs were recovered after two weeks for hemoglobin quantity analysis. Plugs hemoglobin content was assessed with the hemoglobin assay kit (Sigma Aldrich) and experiments were conducted according to the manufacturer recommendations. Results are expressed in micrograms of hemoglobin per milligram of […]®.

Another data set has as its target T1, VEGFR3 (UniProt P35916 25-776, limits assumed).
T1 sequence (looked up): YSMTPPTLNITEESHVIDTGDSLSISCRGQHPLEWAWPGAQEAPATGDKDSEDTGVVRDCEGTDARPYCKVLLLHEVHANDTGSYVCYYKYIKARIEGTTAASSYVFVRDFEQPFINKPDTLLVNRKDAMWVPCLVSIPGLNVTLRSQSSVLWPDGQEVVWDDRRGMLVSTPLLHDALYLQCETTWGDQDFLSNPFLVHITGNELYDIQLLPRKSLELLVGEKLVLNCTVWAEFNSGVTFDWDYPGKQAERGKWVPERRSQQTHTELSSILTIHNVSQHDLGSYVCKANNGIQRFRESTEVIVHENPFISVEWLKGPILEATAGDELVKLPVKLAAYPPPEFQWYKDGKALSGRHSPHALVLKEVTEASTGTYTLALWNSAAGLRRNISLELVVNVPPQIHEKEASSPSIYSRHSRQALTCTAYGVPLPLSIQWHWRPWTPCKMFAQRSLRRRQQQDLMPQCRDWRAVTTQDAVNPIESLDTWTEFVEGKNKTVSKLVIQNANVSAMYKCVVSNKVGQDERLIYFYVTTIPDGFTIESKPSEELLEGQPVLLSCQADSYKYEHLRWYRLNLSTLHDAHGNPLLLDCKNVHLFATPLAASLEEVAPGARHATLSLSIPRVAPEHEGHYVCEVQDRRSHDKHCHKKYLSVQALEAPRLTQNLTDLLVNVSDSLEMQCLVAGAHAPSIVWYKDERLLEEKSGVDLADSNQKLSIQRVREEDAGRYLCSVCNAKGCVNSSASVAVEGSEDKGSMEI
The data set is described as follows: saturation binding experiment.

The target of a further data set is T2, VEGFR2 (UniProt P35968 20-764, limits assumed).
T2 construct: also called VEGFR2/KDR
T2 sequence (P35968 20-764 limits assumed): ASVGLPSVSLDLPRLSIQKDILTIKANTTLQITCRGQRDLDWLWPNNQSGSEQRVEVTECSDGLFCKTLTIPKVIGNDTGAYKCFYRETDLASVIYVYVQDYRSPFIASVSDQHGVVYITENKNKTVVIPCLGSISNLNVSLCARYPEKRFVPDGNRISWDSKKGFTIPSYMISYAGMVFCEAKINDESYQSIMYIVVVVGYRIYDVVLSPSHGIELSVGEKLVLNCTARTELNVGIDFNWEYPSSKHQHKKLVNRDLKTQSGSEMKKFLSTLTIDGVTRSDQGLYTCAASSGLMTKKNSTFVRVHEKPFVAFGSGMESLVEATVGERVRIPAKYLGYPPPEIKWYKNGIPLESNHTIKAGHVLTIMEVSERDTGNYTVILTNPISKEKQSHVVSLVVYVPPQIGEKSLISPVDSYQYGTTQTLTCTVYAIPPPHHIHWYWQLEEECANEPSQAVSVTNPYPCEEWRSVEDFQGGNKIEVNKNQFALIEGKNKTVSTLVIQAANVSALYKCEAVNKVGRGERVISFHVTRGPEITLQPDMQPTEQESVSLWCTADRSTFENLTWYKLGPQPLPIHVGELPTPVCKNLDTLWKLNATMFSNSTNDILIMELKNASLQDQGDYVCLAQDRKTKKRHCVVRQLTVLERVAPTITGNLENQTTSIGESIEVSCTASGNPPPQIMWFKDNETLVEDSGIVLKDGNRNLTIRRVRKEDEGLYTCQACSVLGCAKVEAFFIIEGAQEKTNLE
Description: saturation binding experiment.

In another data set the target is T3, VEGFR1 (UniProt P17948 27-756, limits assumed).
T3 construct: also called VEGFR1/Flt1
T3 sequence (P17948 27-756 limits assumed): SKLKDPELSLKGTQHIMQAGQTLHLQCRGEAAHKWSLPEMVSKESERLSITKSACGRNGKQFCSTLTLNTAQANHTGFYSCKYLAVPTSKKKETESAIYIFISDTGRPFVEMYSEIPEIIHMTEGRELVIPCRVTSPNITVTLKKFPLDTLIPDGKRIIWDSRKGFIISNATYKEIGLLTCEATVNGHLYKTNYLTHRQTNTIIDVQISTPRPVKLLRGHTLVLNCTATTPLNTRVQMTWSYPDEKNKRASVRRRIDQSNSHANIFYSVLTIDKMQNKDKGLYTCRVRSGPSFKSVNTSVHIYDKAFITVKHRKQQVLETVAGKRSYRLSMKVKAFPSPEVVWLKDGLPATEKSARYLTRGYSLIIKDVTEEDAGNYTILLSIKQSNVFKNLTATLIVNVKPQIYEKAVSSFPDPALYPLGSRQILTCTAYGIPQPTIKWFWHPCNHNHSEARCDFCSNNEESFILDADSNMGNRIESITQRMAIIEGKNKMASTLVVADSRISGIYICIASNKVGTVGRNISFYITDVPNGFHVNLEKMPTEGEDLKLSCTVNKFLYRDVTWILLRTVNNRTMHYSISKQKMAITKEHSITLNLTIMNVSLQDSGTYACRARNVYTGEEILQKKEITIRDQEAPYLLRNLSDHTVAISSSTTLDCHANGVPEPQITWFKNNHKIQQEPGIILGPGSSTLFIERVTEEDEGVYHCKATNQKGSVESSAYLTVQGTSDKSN
Description: saturation binding experiment.

[4] abbreviates: 786-O cells, pLKO.1 lentiviral transduction.
[5] abbreviates: ACHN cells, pLKO.1 lentiviral transduction.

Like-named read-outs stand apart in the source and are kept apart here.

With “5′-GCCTTTGTITTCCATTTCC-3′ (GCCTTTGTTTTCCATTTCC; chemistry not given here) [shRNA NF #1]”, the “expression of the respective target (VEGF or VEGF222/NF)” value (shortened to “expression of the respective target”) with 786-O cells and in the data set on ACHN cells [1] was “downregulated the expression of their respective targets” in each case.
With “5′-CATITCCCTCAGATGTGACAA-3′ (CATTTCCCTCAGATGTGACAA; chemistry not given here) [shRNA NF #2]”, the “expression of the respective target” value in the data set with 786-O cells and in the data set on ACHN cells [1] was “downregulated the expression of their respective targets” throughout.
For the molecule “5′-GCGCAAGAAATCCCGGTATAA-3′ (expressed or natural sequence) [shRNA #1]”, the “expression of the respective target” value in the data set on 786-O cells (setting [4]) and in the data set on ACHN cells [1] (setting [5]) was “downregulated the expression of their respective targets” throughout.
For the molecule “5′-AGGGCAGAATCATCACGAAGT-3′ (expressed or natural sequence) [shRNA #2]”, the “expression of the respective target” value with 786-O cells (setting [4]) and with ACHN cells [1] (setting [5]) was “downregulated the expression of their respective targets” in each case.
For `CCN(CC)CCNC(=O)c1c(C)[nH]c(/C=C2\C(=O)Nc3ccc(F)cc32)c1C` [sunitinib], in the data set on metastatic ccRCC (High VEGF222/NF), the Death % was 83%, the “OS (months)” value came to 13 months, the “PFS (months)” value is 5 months and the progression % turned out to be 83%. In the data set on metastatic ccRCC (Low VEGF222/NF), the Death % is listed as 68%, the “OS (months)” value came out at 37 months, the “PFS (months)” value stood at 15 months and the progression % came to 76%. In the data set on metastatic ccRCC (Total), the Death % turned out to be 75%, the “OS (months)” value is 33 months and the progression % is 82%. In addition, the “PFS (months)” value with metastatic ccRCC (Total, 47 M1 ccRCC patients) is 12 months.

B1: VEGF165: conventional pro-angiogenic VEGF isoform, recombinant, used as comparator (protein)
chain: APMAEGGGQNHHEVVKFMDVYQRSYCHPIETLVDIFQEYPDEIEYIFKPSCVPLMRCGGCCNDEGLECVPTEESNITMQIMRIKPHQGQHIGEMSFLQHNKCECRPKKDRARQENPCGPCSERRKHLFVQDPQTCKCSCKNTDSRCKARQLELNERTCRCDKPRR
For B1, the ACHN cell proliferation entry with ACHN cells [2] was “stimulated ACHN cell proliferation”. The “reddish aspect and hemoglobin content of plugs” value in data set [3] is reported as “equivalent”.

B2: recombinant VEGF222/NF protein produced in HEK293 cells by ProteoGenix (ligand)
chain: GSHHHHHHSGLEVLFQGPAPMAEGGGQNHHEVVKFMDVYQRSYCHPIETLVDIFQEYPDEIEYIFKPSCVPLMRCGGCCNDEGLECVPTEESNITMQIMRIKPHQGQHIGEMSFLQHNKCECRPKKDRARQENPCGPCSERRKHLFVQDPQTCKCSCKNTDSRCKARQLELNERTCSLCFPFPSDVTSRGGEPGRRKEPPSGFREPDLSPGKTDTERSIQKPRCRHHTITIDRTVLNPET
notes: also called VEGF222 New Form; rVEGF222/NF
As for B2, the Kd with VEGFR3 is 10.4 nM; in the data set with VEGFR2 it was 0.73 nM; with VEGFR1 it was 1.12 nM.

One may read the Kd as the free concentration of one partner at which half of the binding sites on the other are occupied at equilibrium, for simple one-to-one binding. High values mean weaker binding, low ones tighter binding.
